Reference: publication PMC6259618 (Molecules, 2011)
Where two headings read alike, the source gives them in different places. Where a SMILES comes first, the peptide text is derived from it. Where no end group is shown, it is not given here. The star is where a group is joined. DOTA = O=C(O)CN1CCN(CC(=O)O)CCN(CC(=O)*)CCN(CC(=O)O)CC1

How the values were obtained:
[1] = system: human prostate carcinoma PC-3 cells; format: binding; conditions: for Binding inhibition by unlabeled DUP-1: ^125I-labeled ligand on PC-3 cells, competitor unlabeled DUP-1 at 10^-4 M
Experimental: The human prostate carcinoma cell line PC-3 (American Type Culture Collection, Manassas, VA, USA) was cultivated at 37 °C in a 5% CO2 incubator in RPMI 1640 with Glutamax containing 10% FCS (Invitrogen, Karlsruhe, Germany) and 25 mmol/L HEPES.
200,000 cells were seeded in 6-well plates and cultivated for 24 hours. The medium was replaced by 1 mL fresh medium (without FCS). ^125I-labeled or ^111In-labeled peptide was added to the cell culture (1–2 × 10^6 cpm per well) and incubated for various time periods. Thereafter, the cells were washed thrice with 1 mL phosphate buffer saline (PBS) and subsequently lysed with 0.3 mol/L NaOH (0.5 mL). Radioactivity was measured with a γ-counter and calculated as percentage applied dose per 10^6 cells. For competition experiments co-incubation was performed with the unlabeled peptide at a defined concentration. If BSA or dry milk powder was used as blocking agents, it was added to a final concentration of 1% in medium without FCS.

in vivo = conditions: male, BALB/c nu/nu, mouse, iv, total radioactivity; for tissue to tissue ratio at 0.25 h / tissue to tissue ratio at 1 h: Tumor-to-organ ratio
Experimental: (§1) Male 6-week-old BALB/c nu/nu mice were obtained from Charles River WIGA (Sulzfeld, Germany) and housed in VentiRacks. For inoculation of the tumors, a Matrigel matrix/cell (5 × 10^6 cells) suspension was injected subcutaneously into the flank of the animals. Tumors were grown up to a size of ~1.0 cm^3. ^111In-labeled or ^131I-labeled peptide was injected via the tail vein into the animals, carrying PC-3 prostate tumors. At defined time points post injection, the mice were sacrificed. Tumor, blood and selected tissues (heart, lung, spleen, liver, kidney, muscle, intestinum and brain) were removed, drained of blood, weighed, and the radioactivity was measured with a γ-counter (LB 951G, Berthold Technologies). The percentage injected dose per gram of tissue (%ID/g) was calculated. All animal experiments were carried out in conformity with the German law for protection of animals and are in compliance with European laws.

[2] = system: human prostate carcinoma PC-3 cells; conditions: for Incubation time to maximal radioligand binding / binding saturation: ^111In- or ^125I-labeled peptide, medium without FCS, gamma-counter; for Binding as % of the native molecule (DUP-1) capacity: ^125I-labeled
Experimental: Direct radiolabeling with ^125I was performed on the tyrosine moiety using the chloramine-T method. A 10^−3 M aqueous solution of the respective peptide (5–25 µL, 5–25 nmol) was added to 0.25 M phosphate buffer (25 µL, pH 7.5). A radioactivity amount of 1–10 MBq ^125I- or ^131I- was added to this mixture and vortexed for 30 sec. The labeling reaction was quenched by adding 10 µL of a saturated aqueous methionine solution. The radiolabeled peptide was purified by HPLC on a Lichrosorb RP-select B 5 µm, 250 × 4 mm column using a linear solvent gradient system.
Radiolabeling was performed by complexation with ^111In-chloride. One microliter of a 10^−3 M solution of DOTA-Lys-DUP-1 in 50% dimethyl sulfoxide in water was mixed with sodium acetate buffer (25 µL, pH 5), and 10 MBq ^111InCl3 (PerkinElmer, Rodgau) was added. The solution was heated at 95 °C for 25 min. Quality control was performed by HPLC showing a radiochemical purity >95%.

[3] = system: human prostate carcinoma PC-3 cells; parameters: method as in PMID 15671538; conditions: ^125I-DUP-1, 'has been shown to be'; earlier work; cited from earlier work
PC-3 tumors [4] = conditions: cited from earlier work; for Tumor binding: iodinated native ligand
Experimental: A linear peptide with affinity for prostate carcinoma was identified in our group using phage display techniques. The peptide, […], was isolated on prostate-specific membrane antigen-negative cells and evaluated both in vitro and in vivo. Chemical synthesized […] was tested for binding affinity, specificity, kinetics and internalization. In vivo tumor accumulation and organ distribution was evaluated in a nude mouse model, carrying subcutaneously human prostate carcinoma cells. […] A possible explanation for the rapid clearance is the higher polarity of the DOTA conjugate.

[5] = native DUP-1, not among the peptides tested here; earlier work; cited from earlier work
human serum = conditions: 37 °C, up to 6 hours
PC-3 tumors [6] = experiment: in vivo; conditions: mouse
Experimental: as §1

[7] = ^125I-labeled fragments, PC-3 cells, after binding saturation
[8] = PC-3 cells, after 10 min incubation
[9] = PC-3 cells, after 60 min incubation

With `C[C@H](NC(=O)[C@H](CCCNC(=N)N)NC(=O)[C@H](CC(N)=O)NC(=O)[C@@H]1CCCN1C(=O)[C@H](CCCNC(=N)N)NC(=O)[C@@H](N)Cc1ccccc1)C(=O)N[C@@H](CCC(N)=O)C(=O)N[C@@H](CC(=O)O)C(=O)N[C@@H](Cc1ccc(O)cc1)C(=O)N[C@@H](CC(N)=O)C(=O)N[C@H](C(=O)N[C@@H](CC(N)=O)C(=O)N[C@@H](CCCCNC(=O)CN1CCN(CC(=O)O)CCN(CC(=O)O)CCN(CC(=O)O)CC1)C(N)=O)[C@@H](C)O` (111In complex, metal not drawn) [DOTA-Lys-DUP-1] (H-FRPNRAQDYNTNK(DOTA)-NH2) as the compound, how does the IC50 ([1]; 24 h) read?
The IC50 was 3.3 µM.

And the tissue uptake at 0.25 h (in vivo)?
Its tissue uptake at 0.25 h is 2.1 %ID/g.

What about the tissue uptake at 1 h (in vivo) of the same compound?
The tissue uptake at 1 h was 0.14 %ID/g.

What about the tissue to tissue ratio at 0.25 h (in vivo; Blood) of the same compound?
The tissue to tissue ratio at 0.25 h was 0.79 ± 0.198.

What about the tissue to tissue ratio at 1 h (in vivo; Blood) of the same compound?
Its tissue to tissue ratio at 1 h is 3.45 ± 0.261.

What about the tissue to tissue ratio at 0.25 h (in vivo; Brain) of the same compound?
The tissue to tissue ratio at 0.25 h was 18.6 ± 4.05.

And the tissue to tissue ratio at 1 h (in vivo; Brain)?
Its tissue to tissue ratio at 1 h is 14.8 ± 4.73.

And the tissue to tissue ratio at 0.25 h (in vivo; Heart)?
The tissue to tissue ratio at 0.25 h was 1.99 ± 0.459.

What about the tissue to tissue ratio at 1 h (in vivo; Heart) of the same compound?
Its tissue to tissue ratio at 1 h is 7.79 ± 0.578.

What about the tissue to tissue ratio at 0.25 h (in vivo; Intestine) of the same compound?
Its tissue to tissue ratio at 0.25 h is 2.46 ± 0.391.

And the tissue to tissue ratio at 1 h (in vivo; Intestine)?
Its tissue to tissue ratio at 1 h is 4.79 ± 2.13.

What about the tissue to tissue ratio at 0.25 h (in vivo; Kidney) of the same compound?
Its tissue to tissue ratio at 0.25 h is 0.124 ± 0.028.

And the tissue to tissue ratio at 1 h (in vivo; Kidney)?
Its tissue to tissue ratio at 1 h is 0.063 ± 0.012.

What about the tissue to tissue ratio at 0.25 h (in vivo; Liver) of the same compound?
Its tissue to tissue ratio at 0.25 h is 2.35 ± 0.196.

What about the tissue to tissue ratio at 1 h (in vivo; Liver) of the same compound?
The tissue to tissue ratio at 1 h was 3.81 ± 0.07.

What about the tissue to tissue ratio at 0.25 h (in vivo; Lung) of the same compound?
The tissue to tissue ratio at 0.25 h was 0.823 ± 0.167.

And the tissue to tissue ratio at 1 h (in vivo; Lung)?
Its tissue to tissue ratio at 1 h is 2.9 ± 0.142.

What about the tissue to tissue ratio at 0.25 h (in vivo; Muscle) of the same compound?
Its tissue to tissue ratio at 0.25 h is 3.39 ± 0.833.

What about the tissue to tissue ratio at 1 h (in vivo; Muscle) of the same compound?
The tissue to tissue ratio at 1 h was 8.05 ± 6.85.

And the tissue to tissue ratio at 0.25 h (in vivo; Spleen)?
The tissue to tissue ratio at 0.25 h was 3.02 ± 0.793.

What about the tissue to tissue ratio at 1 h (in vivo; Spleen) of the same compound?
Its tissue to tissue ratio at 1 h is 5.71 ± 1.09.

And the tissue to tissue ratio at 0.25 h (in vivo; Tumor)?
The tissue to tissue ratio at 0.25 h was 1.

What about the tissue to tissue ratio at 1 h (in vivo; Tumor) of the same compound?
The tissue to tissue ratio at 1 h was 1.

With QDYNTN [DUP-7-12] as the compound, how does the “Binding as % of the leader peptide DUP-1” value [2, 7] read?
Its value is “reduced binding capacity to the background level”.

With FRPNRAY [DUP-1-6-Y] as the compound, how does the “Binding as % of the leader peptide DUP-1” value [2] read?
Its value is “about 82%”.

Which “Incubation time to maximal radioligand binding / binding saturation” value ([2]; PC-3 cells) does the source give for FRPNRAQDYNTN [DUP-1] here?
Its value is 5 min.

What about the “Binding, percentage applied dose per 10^6 cells” value ([2]; PC-3 cells, radiolabeled peptide, maximal binding) of the same compound?
Its value is “about 12 % applied dose per 10^6 cells”.

And the IC50 [3]?
The IC50 was 177 nM.

What about the Tumor binding (PC-3 tumors [4]; 15 min circulation in mice) of the same compound?
The Tumor binding was “about 7%”.

And the Tumor binding (PC-3 tumors [4]; 45 min circulation in mice)?
The Tumor binding was “about 4%”.

What about the Kidney radioactivity (PC-3 tumors [4]; iodinated peptide, 15 min) of the same compound?
The Kidney radioactivity was “about 8 % ID/g”.

What about the “Increase of radioligand-binding in the prostate tumor compared to normal prostate tissue” value (PC-3 tumors [4]; organ distribution, nude mouse model) of the same compound?
The value was “up to 300%”.

And the Serum half life [5]?
Its Serum half life is 2 min.

Which “Binding inhibition by unlabeled DUP-1” value [1] does the source give for C-FRPNRAQDYNTN-C (disulfide) [cDUPc] here?
Its value is “up to 90%”.

And the “Incubation time to maximal radioligand binding / binding saturation” value ([2]; PC-3 cells)?
Its value is 60 min.

What about the “Binding as % of the native molecule (DUP-1) capacity” value [2, 8] of the same compound?
Its value is “about 7%”.

What about the “Binding as % of the native molecule (DUP-1) capacity” value [2, 9] of the same compound?
Its value is “about 19%”.

Which results are given for fRPNRAQDYNTN [dPhe-DUP-1]?
Binding inhibition by unlabeled DUP-1 [1]: up to 94%; Incubation time to maximal radioligand binding / binding saturation ([2]; PC-3 cells): 60 min; In vitro binding capacity relative to DUP-1 ([2]; PC-3 cells, summary in discussion, incubation time not printed at place): about 25%; Binding as % of the native molecule (DUP-1) capacity [2, 8]: about 8.5%; Binding as % of the native molecule (DUP-1) capacity [2, 9]: about 25%

Which cleaved bond (human serum) does the source give for “H-FRPNRAQDYNTNK(DOTA)-NH2 (SMILES C[C@H](NC(=O)[C@H](CCCNC(=N)N)NC(=O)[C@H](CC(N)=O)NC(=O)[C@@H]1CCCN1C(=O)[C@H](CCCNC(=N)N)NC(=O)[C@@H](N)Cc1ccccc1)C(=O)N[C@@H](CCC(N)=O)C(=O)N[C@@H](CC(=O)O)C(=O)N[C@@H](Cc1ccc(O)cc1)C(=O)N[C@@H](CC(N)=O)C(=O)N[C@H](C(=O)N[C@@H](CC(N)=O)C(=O)N[C@@H](CCCCNC(=O)CN1CCN(CC(=O)O)CCN(CC(=O)O)CCN(CC(=O)O)CC1)C(N)=O)[C@@H](C)O)” here?
The cleaved bond was “phenylalanine1-R2, first_seen, 5 min”.

What does the source list for NRAQDY [DUP-4-9]?
IC50 ([1]; ^125I-labeled DUP-4-9 on PC-3 cells, unlabeled peptide as competitor, read-out: IC50): 3.5 µM; Binding inhibition by unlabeled DUP-1 [1]: about 99%; Activity in kidneys (PC-3 tumors [6]): 15.48 % ID/g; Radioactivity in blood (PC-3 tumors [6]): about 5.5 % ID/g; Incubation time to maximal radioligand binding / binding saturation ([2]; PC-3 cells): 30 min; Binding as % of the leader peptide DUP-1 [2, 7]: about 70%
